Measured values as given in patent publication US20220119379A1, “IMMUNOMODULATOR” (HITGEN INC., priority 2019, published 2022).
Read-outs that look alike come from different tables or passages of the source.

What was measured:
[1] = molecular target: Sting protein (Homo sapiens, UniProt Q86WV6); assay: Binding affinity test of the compound and Sting protein by protein thermal transfer test (TSA); settings: Kd fitted from change of ΔTm with compound concentration
Procedure: The protein thermal transfer test (TSA) was used to determine the binding affinity of the compound to Sting protein. The 100 ug/ml Sting protein was mixed with different concentrations of the compound and 5× SYPRO Orange dye in a buffer of 20 mM Hepes, 150 mM NaCl, 1 mM MgCl2, 1 mM DTT, pH=7.5. The protein dissolution curve was measured on a qPCR instrument, the Tm value was fitted with Protein Thermal Shift Software 1.3 software, and the Tm difference of the protein was calculated when different concentrations of compound and no compound were added. The dissociation constant Kd was fitted and obtained according to the change of ΔTm with the concentration of the compound. […] The Kd value of each compound is classified according to the following instructions: […]

[2] = molecular target: T1, Sting protein (Homo sapiens, UniProt Q86WV6, G230A/H232R/R293Q/R71H); assay: Agonistic function test on Sting protein: IFN-β and CXCL10 (IP10) cytokines produced by THP1 cells (ELISA); assay type: cell-based; settings: for EC50: 18 hours, ELISA of supernatant; for activity of stimulating IFN-β and CXCL10 (IP10) cytokines produced by THP1 cells (in words): listed compounds compared with the reference compound
T1 construct: endogenous in cells; host or cells: THP1 cells (Shanghai Cell Bank)
Procedure: In this experiment, the function of sting agonist was evaluated by detecting the changes of IFN-β and CXCL10 (IP10) cytokines produced by human peripheral blood mononuclear cell line THP1 cells (Shanghai Cell Bank) stimulated by the compounds. On the first day of the experiment, the ELISA plate was coated according to the IFN-β (R&D, #DY814-05) and IP10 (BD, #550926) ELISA test kit instructions. The compound was dissolved into DMSO stock solution and diluted with culture medium to a 2× working concentration, added to a 96-well plate, 100 μL per well. The THP1 cells in the logarithmic growth phase were taken to count, and were diluted to a concentration of 2*10^6/mL, added to the above-mentioned 96-well plate containing the compounds, with […], per well, mixed well, and incubated in a 37° C., 5% CO2 incubator for 18 hours. On the second day, the above cell culture supernatant was taken, 100 μL per well, and tested according to IFN-β and IP10 ELISA test kits respectively. The OD450 value was read, and converted into IFN-β and IP10 concentration according to the standard curve, and fitted with GraphPad 5.0 to calculate the EC50 value of the dose-efficiency curve.

Sequence of Sting protein (Homo sapiens, UniProt Q86WV6) (Q86WV6 whole entry H232R, species assumed): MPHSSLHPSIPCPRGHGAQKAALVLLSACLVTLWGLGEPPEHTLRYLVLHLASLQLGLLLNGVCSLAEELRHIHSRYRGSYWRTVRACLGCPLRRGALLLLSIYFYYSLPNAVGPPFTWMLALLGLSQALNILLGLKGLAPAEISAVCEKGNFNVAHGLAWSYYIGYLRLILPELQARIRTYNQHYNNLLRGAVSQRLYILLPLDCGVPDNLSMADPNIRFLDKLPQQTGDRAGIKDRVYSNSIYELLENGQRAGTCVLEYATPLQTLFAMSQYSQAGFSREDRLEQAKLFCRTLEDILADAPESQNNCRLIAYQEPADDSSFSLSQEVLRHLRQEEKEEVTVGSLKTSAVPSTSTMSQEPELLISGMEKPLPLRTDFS
T1 sequence (Q86WV6 whole entry R71H/G230A/H232R/R293Q): as the sequence (Q86WV6 whole entry H232R, species assumed) above, with R71H, G230A, R293Q counted along it

Structure (SMILES) | Kd [1] | EC50 ([2]; read-out: IFN-β EC50) | EC50 ([2]; read-out: IP10 EC50) | activity of stimulating IFN-β and CXCL10 (IP10) cytokines produced by THP1 cells (in words) [2]
CCc1nc(C)sc1C(=O)Nc1nc2cc(C(N)=O)cc(OCCCN3CCOCC3)c2n1C/C=C/Cn1c(NC(=O)c2cc(C)nn2CC)nc2cc(C(N)=O)cc(OC)c21 [Example 1] | 1000 to 10000 nM | 100 to 1000 nM | 10 to 100 nM | 
CCc1nc(C)sc1C(=O)Nc1nc2cc(C(N)=O)cc(OC)c2n1C/C=C/Cn1c(NC(=O)c2sc(C)nc2CC)nc2cc(C(N)=O)cc(OCCCN3CCOCC3)c21 [Example 3] | 1000 to 10000 nM | 100 to 1000 nM | 10 to 100 nM | 
CCc1nc(C)sc1C(=O)Nc1nc2cc(C(N)=O)cc(OCCCN3CCOCC3)c2n1C/C=C/Cn1c(NC(=O)c2cc(C)nn2CC)nc2cc(C(N)=O)cc(SC)c21 [Example 4] | 1000 to 10000 nM | 10 to 100 nM | < 10 nM | comparable or even higher activity
CCc1nc(C)sc1C(=O)Nc1nc2cc(C(N)=O)cc(OC)c2n1C/C=C/Cn1c(NC(=O)c2cc(C)nn2CC)nc2cc(C(N)=O)cc(SCCCN3CCOCC3)c21 [Example 6] | 1000 to 10000 nM | 100 to 1000 nM | 100 to 1000 nM | 
CCc1nc(C)sc1C(=O)Nc1nc2cc(C(N)=O)cc(OCCCN3CCN(C)CC3)c2n1C/C=C/Cn1c(NC(=O)c2cc(C)nn2CC)nc2cc(C(N)=O)cc(OC)c21 [Example 7, (E)-N-(5-carbamoyl-1-(4-(5-carbamoyl-2-(1-ethyl-3-methyl-1H-pyrazole-5-formylamino)-7-methoxy-1H-benzo[d]imidazol-1-yl)but-2-en-1-yl)-7-(3-(4-methylpiperazin-1-yl)propoxy)-1H-benzo[d]imidazol-2-yl)-4-ethyl-2-methylthiazole-5-formylamide] | 1000 to 10000 nM | 100 to 1000 nM | 100 to 1000 nM | 
CCc1nc(C)sc1C(=O)Nc1nc2cc(C(N)=O)cc(OCCCN3CCN(CC)CC3)c2n1C/C=C/Cn1c(NC(=O)c2cc(C)nn2CC)nc2cc(C(N)=O)cc(OC)c21 [Example 8] | 1000 to 10000 nM | 100 to 1000 nM | 10 to 100 nM | 
CCc1nc(C)sc1C(=O)Nc1nc2cc(C(N)=O)cc(OCCCN3CCN(C(C)C)CC3)c2n1C/C=C/Cn1c(NC(=O)c2cc(C)nn2CC)nc2cc(C(N)=O)cc(OC)c21 [Example 9] | 1000 to 10000 nM | 100 to 1000 nM | 10 to 100 nM | 
CCc1nc(C)sc1C(=O)Nc1nc2cc(C(N)=O)cc(OCCCN3CCN(C4CC4)CC3)c2n1C/C=C/Cn1c(NC(=O)c2cc(C)nn2CC)nc2cc(C(N)=O)cc(OC)c21 [Example 10] | 1000 to 10000 nM | 100 to 1000 nM | 10 to 100 nM | 
CCc1nc(C)sc1C(=O)Nc1nc2cc(C(N)=O)cc(OCCCN3CCN(C(C)=O)CC3)c2n1C/C=C/Cn1c(NC(=O)c2cc(C)nn2CC)nc2cc(C(N)=O)cc(OC)c21 [Example 11] | 1000 to 10000 nM | 100 to 1000 nM | 10 to 100 nM | 
CCc1nc(C)sc1C(=O)Nc1nc2cc(C(N)=O)cc(OC)c2n1C/C=C/Cn1c(NC(=O)c2cc(C)nn2CC)nc2cc(C(N)=O)cc(OCCCN3CCN(C)CC3)c21 [Example 12] | 1000 to 10000 nM |  | 100 to 1000 nM | 
CCc1nc(C)sc1C(=O)Nc1nc2cc(C(N)=O)cc(OC)c2n1C/C=C/Cn1c(NC(=O)c2cc(C)nn2CC)nc2cc(C(N)=O)cc(OCCCN3CCN(CC)CC3)c21 [Example 13] | 1000 to 10000 nM | 100 to 1000 nM | 10 to 100 nM | 
CCc1nc(C)sc1C(=O)Nc1nc2cc(C(N)=O)cc(OC)c2n1C/C=C/Cn1c(NC(=O)c2cc(C)nn2CC)nc2cc(C(N)=O)cc(OCCCN3CCN(C(C)C)CC3)c21 [Example 14] | 1000 to 10000 nM | 100 to 1000 nM | 100 to 1000 nM | 
CCc1nc(C)sc1C(=O)Nc1nc2cc(C(N)=O)cc(OCCCN3CCN(C)CC3)c2n1C/C=C/Cn1c(NC(=O)c2cc(C)nn2CC)nc2cc(C(N)=O)cc(SC)c21 [Example 16] | 1000 to 10000 nM |  | 100 to 1000 nM | 
CCc1nc(C)sc1C(=O)Nc1nc2cc(C(N)=O)cc(OCCCN3CCN(C(C)C)CC3)c2n1C/C=C/Cn1c(NC(=O)c2cc(C)nn2CC)nc2cc(C(N)=O)cc(SC)c21 [Example 18] | 1000 to 10000 nM | 100 to 1000 nM | 10 to 100 nM | 
CCc1nc(C)sc1C(=O)Nc1nc2cc(C(N)=O)cc(OCCCN3CCN(C4CC4)CC3)c2n1C/C=C/Cn1c(NC(=O)c2cc(C)nn2CC)nc2cc(C(N)=O)cc(SC)c21 [Example 19] | 1000 to 10000 nM | < 10 nM | < 10 nM | comparable or even higher activity
CCc1nc(C)sc1C(=O)Nc1nc2cc(C(N)=O)cc(SC)c2n1C/C=C/Cn1c(NC(=O)c2cc(C)nn2CC)nc2cc(C(N)=O)cc(OCCCN3CCN(C)CC3)c21 [Example 20] | 1000 to 10000 nM | 100 to 1000 nM | 10 to 100 nM | 
CCc1nc(C)sc1C(=O)Nc1nc2cc(C(N)=O)cc(SC)c2n1C/C=C/Cn1c(NC(=O)c2cc(C)nn2CC)nc2cc(C(N)=O)cc(OCCCN3CCN(CC)CC3)c21 [Example 21] | 1000 to 10000 nM | 100 to 1000 nM | 10 to 100 nM | 
CCc1nc(C)sc1C(=O)Nc1nc2cc(C(N)=O)cc(SC)c2n1C/C=C/Cn1c(NC(=O)c2cc(C)nn2CC)nc2cc(C(N)=O)cc(OCCCN3CCN(C(C)C)CC3)c21 [Example 22] | 1000 to 10000 nM | 100 to 1000 nM | 10 to 100 nM | 
CCc1nc(C)sc1C(=O)Nc1nc2cc(C(N)=O)cc(SC)c2n1C/C=C/Cn1c(NC(=O)c2cc(C)nn2CC)nc2cc(C(N)=O)cc(OCCCN3CCN(C4CC4)CC3)c21 [Example 23] | 1000 to 10000 nM | 10 to 100 nM | 10 to 100 nM | comparable or even higher activity
CCC(=O)N1CCN(CCCOc2cc(C(N)=O)cc3nc(NC(=O)c4cc(C)nn4CC)n(C/C=C/Cn4c(NC(=O)c5sc(C)nc5CC)nc5cc(C(N)=O)cc(OC)c54)c23)CC1 [Example 30] | 1000 to 10000 nM | 100 to 1000 nM | 10 to 100 nM | 
CCc1nc(C)sc1C(=O)Nc1nc2cc(C(N)=O)cc(OCCCN3CCN(C(C)=O)CC3)c2n1C/C=C/Cn1c(NC(=O)c2cc(C)nn2CC)nc2cc(C(N)=O)cc(SC)c21 [Example 35] | 1000 to 10000 nM | 10 to 100 nM | 10 to 100 nM | comparable or even higher activity
CCc1nc(C)sc1C(=O)Nc1nc2cc(C(N)=O)cc(OCCCN3CCN(C(=O)OC)CC3)c2n1C/C=C/Cn1c(NC(=O)c2cc(C)nn2CC)nc2cc(C(N)=O)cc(SC)c21 [Example 40] | 1000 to 10000 nM | 10 to 100 nM |  | comparable or even higher activity
CCc1nc(C)sc1C(=O)Nc1nc2cc(C(N)=O)cc(SC)c2n1C/C=C/Cn1c(NC(=O)c2cc(C)nn2CC)nc2cc(C(N)=O)cc(OCCCN3CCN(C(C)=O)CC3)c21 [Example 41] | 1000 to 10000 nM | 100 to 1000 nM | 10 to 100 nM | 
CCc1nc(C)sc1C(=O)Nc1nc2cc(C(N)=O)cc(OCCCN3CCOCC3)c2n1C/C=C/Cn1c(NC(=O)c2c(F)c(C)nn2CC)nc2cc(C(N)=O)cc(OC)c21 [Example 47] | 1000 to 10000 nM | > 1000 nM | 10 to 100 nM | 
CCc1nc(C)sc1C(=O)Nc1nc2cc(C(N)=O)cc(OC)c2n1C/C=C/Cn1c(NC(=O)c2c(F)c(C)nn2CC)nc2cc(C(N)=O)cc(OCCCN3CCOCC3)c21 [Example 48] | 1000 to 10000 nM | 100 to 1000 nM | 10 to 100 nM | 
CCc1nc(C)sc1C(=O)Nc1nc2cc(C(N)=O)cc(OCCCN3CCOCC3)c2n1C/C=C/Cn1c(NC(=O)c2c(F)c(C)nn2CC)nc2cc(C(N)=O)cc(SC)c21 [Example 49] | 1000 to 10000 nM | 10 to 100 nM | < 10 nM | comparable or even higher activity
CCc1nc(C)sc1C(=O)Nc1nc2cc(C(N)=O)cc(OCCCN3CCOCC3)c2n1C/C=C/Cn1c(NC(=O)c2sc(C)nc2CC)nc2cc(C(N)=O)cc(SC)c21 [Example 50] | 1000 to 10000 nM | 10 to 100 nM | 10 to 100 nM | comparable or even higher activity
CCn1nc(C)cc1C(=O)Nc1nc2cc(C(N)=O)cc(OCCCN3CCOCC3)c2n1C/C=C/Cn1c(NC(=O)c2cc(C)nn2CC)nc2cc(C(N)=O)cc(SC)c21 [Example 54, (E)-1-(4-(5-carbamoyl-2-(1-ethyl-3-methyl-1H-pyrazole-5-formylamino)-7-(3-morpholinopropoxy)-1H-benzo[d]imidazol-1-yl)but-2-en-1-yl)-2-(1-ethyl-3-methyl-1H-pyrazole-5-carboxamino)-7-(methylthio)-1H-benzo[d]imidazole-5-formylamide] | 1000 to 10000 nM |  |  | 
